Where two headings read alike, the source gives them in different places.

The target in experiment [1] is T1, Recombinant human caspase-9 (Homo sapiens, UniProt P55211).
T1 sequence (P55211 1-416): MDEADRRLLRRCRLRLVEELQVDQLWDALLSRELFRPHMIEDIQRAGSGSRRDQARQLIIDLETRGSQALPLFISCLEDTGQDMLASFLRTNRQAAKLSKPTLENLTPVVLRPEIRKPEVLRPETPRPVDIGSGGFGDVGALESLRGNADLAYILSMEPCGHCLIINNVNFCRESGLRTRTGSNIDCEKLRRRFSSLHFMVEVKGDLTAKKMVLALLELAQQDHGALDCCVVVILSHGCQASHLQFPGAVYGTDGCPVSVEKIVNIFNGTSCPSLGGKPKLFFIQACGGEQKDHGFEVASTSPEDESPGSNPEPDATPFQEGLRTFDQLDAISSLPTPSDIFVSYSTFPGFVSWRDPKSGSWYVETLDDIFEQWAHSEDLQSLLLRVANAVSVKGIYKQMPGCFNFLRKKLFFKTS
The experiment is described as follows: delayed-time fluorescence caspase inhibition test, caspase-9.
Protocol: (§1) The substrate used is a tetrapeptide specific to this caspase, having at one of its ends a fluorescent europium marker (W1284) and at the other end a europium chelate fluorescence quencher (QSy-7): Eu-W1284-CIETDK-QSy-7.
(§2) The caspase cleaves the substrate, releasing the quencher. Thus, by excitation at 340 nm, the signal emitted by the fluorescence of the europium is read by WALLAC Victor^2 reader at 615 nm.
(§3) They are ready for use or may be divided into aliquots and stored at −80° C.. […] 20 μl of this solution are distributed per well of the assay plate. […] The assay is performed with 1 U of enzyme per well, by distributing 20 μl of the diluted solution per well. • The standard inhibitors: The standard inhibitors are dissolved in DMSO to a concentration of 10 mM. They are tested at IC20 and at IC50 on the caspases they inhibit (see following table).
(§4) They are then distributed in the wells using this solution to reach the final concentration of IC20 or IC50, i.e. 3 μl in 33 μl of final reaction volume (dilution 1/11). Thus, the final concentration of DMSO in the well is 0.3% (v/v) final. […] An intermediate dilution (1/6.6) is prepared in DMSO by diluting 10 μl of the concentrated solution in 66 μl of DMSO (final volume). […] The inhibitors are then distributed in the wells to reach the final screening concentration (10 μM), i.e. 3 μl in 33 μl of final reaction volume (dilution 1/11) and a final concentration of DMSO of 0.3% (v/v) in the well. • Protocol:
(§5) The incubation takes place for 3 hours 30 minutes at room temperature before reading the fluorescence in delayed time on the WALLAC Victor^2 reader with the filters corresponding to the fluorescence of europium (excitation filter: 340 nm, emission filter: 615 nm).
(§6) The inhibitors are diluted using solutions with concentrations of less than 20 mM in DMSO, and then prediluted in the caspase buffer. […] The specificity factor for caspase-10 is calculated as the following ratio:

Experiment [2] addresses T2, Recombinant human caspase-6 (Homo sapiens, UniProt P55212).
T2 sequence (P55212 24-293): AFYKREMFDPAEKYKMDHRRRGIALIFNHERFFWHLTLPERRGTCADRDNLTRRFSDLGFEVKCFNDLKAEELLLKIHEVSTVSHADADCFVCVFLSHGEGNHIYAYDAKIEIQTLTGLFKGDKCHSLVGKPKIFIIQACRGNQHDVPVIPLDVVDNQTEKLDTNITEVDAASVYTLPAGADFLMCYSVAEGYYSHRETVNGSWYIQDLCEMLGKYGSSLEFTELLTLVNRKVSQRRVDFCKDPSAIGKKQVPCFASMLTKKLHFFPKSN
The experiment is described as follows: delayed-time fluorescence caspase inhibition test, caspase-6.
Protocol: as §1, §2, §3, §4, §5, §6

In experiment [3] the target is Recombinant human caspase-8 (Homo sapiens, UniProt Q14790). Kind of experiment: delayed-time fluorescence caspase inhibition test, caspase-8.
Recombinant human caspase-8, sequence (Q14790 217-479): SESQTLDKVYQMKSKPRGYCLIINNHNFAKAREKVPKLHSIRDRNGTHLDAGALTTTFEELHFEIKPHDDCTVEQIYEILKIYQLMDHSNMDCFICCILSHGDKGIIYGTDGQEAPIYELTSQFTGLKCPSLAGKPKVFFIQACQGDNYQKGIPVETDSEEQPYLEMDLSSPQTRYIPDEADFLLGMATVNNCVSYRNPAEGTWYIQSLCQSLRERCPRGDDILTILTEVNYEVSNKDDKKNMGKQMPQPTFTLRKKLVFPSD
Protocol: as §1, §2, §3, §4, §5, §6
Experiment [4] has as its target T3, Recombinant human caspase-2 (Homo sapiens, UniProt P42575).
T3 sequence (P42575 1-452): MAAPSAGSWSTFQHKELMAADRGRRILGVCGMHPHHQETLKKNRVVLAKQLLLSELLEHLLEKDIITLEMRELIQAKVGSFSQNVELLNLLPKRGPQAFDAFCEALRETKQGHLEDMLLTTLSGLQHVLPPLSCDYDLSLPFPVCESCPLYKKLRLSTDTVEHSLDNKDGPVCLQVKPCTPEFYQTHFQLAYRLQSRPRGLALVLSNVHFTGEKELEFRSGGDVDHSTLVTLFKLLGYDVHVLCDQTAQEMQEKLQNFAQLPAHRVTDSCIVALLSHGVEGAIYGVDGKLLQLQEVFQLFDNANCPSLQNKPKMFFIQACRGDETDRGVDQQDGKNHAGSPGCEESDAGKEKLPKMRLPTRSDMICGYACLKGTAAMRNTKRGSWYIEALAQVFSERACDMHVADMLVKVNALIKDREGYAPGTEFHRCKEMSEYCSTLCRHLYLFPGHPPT
The experiment is described as follows: delayed-time fluorescence caspase inhibition test, caspase-2.
Protocol: as §1, §2, §3, §4, §5, §6

Experiment [5] addresses T4, Recombinant human caspase-3 (Homo sapiens, UniProt P42574).
T4 sequence (P42574 29-277): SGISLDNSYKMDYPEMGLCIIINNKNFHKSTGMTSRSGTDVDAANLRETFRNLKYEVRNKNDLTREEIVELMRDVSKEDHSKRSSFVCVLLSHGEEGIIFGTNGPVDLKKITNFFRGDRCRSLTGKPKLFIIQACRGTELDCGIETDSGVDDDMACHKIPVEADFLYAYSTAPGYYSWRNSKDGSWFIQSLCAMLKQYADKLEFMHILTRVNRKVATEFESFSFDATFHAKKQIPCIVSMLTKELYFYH
Kind of experiment: delayed-time fluorescence caspase inhibition test, caspase-3.
Protocol: as §1, §2
20 μl of this solution are distributed per well of the assay plate. […] The assay is performed with 1 U of enzyme per well, by distributing 20 μl of the diluted solution per well. • The standard inhibitors: The standard inhibitors are dissolved in DMSO to a concentration of 10 mM. They are tested at IC20 and at IC50 on the caspases they inhibit (see following table). The concentrations mentioned in the table are the final concentrations in the assay wells.
as §4
The volumes and the protocol were optimised for automated use.
as §5
The inhibitors are diluted using solutions with concentrations of less than 20 mM in DMSO, and then prediluted in the caspase buffer.

For experiment [6], the target named is T5, Recombinant human caspase-10 (Homo sapiens, UniProt Q92851).
T5 sequence (Q92851 220-521): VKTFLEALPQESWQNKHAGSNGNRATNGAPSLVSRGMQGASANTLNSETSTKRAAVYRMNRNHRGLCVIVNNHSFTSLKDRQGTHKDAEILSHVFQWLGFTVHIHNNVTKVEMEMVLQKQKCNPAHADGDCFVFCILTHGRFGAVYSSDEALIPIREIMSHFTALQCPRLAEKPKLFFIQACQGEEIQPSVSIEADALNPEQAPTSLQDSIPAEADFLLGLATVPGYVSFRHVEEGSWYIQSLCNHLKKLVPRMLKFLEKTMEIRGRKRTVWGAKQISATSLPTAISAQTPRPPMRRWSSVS
The experiment is described as follows: delayed-time fluorescence caspase inhibition test, caspase-10.
Protocol: as §1, §2, §3, §4, §5, §6

By IC50 is commonly meant the point on the concentration scale where inhibition reaches its midpoint. As for `O=S(=O)(NCC1(Cc2ccc(CCO)cc2)CCCC1)c1ccc(Cl)cc1Cl` [Example 46], the IC50 was greater than 200 µM in experiment [1]; greater than 200 µM in experiment [2]; greater than 200 µM in experiment [3]; greater than 200 µM in experiment [4]; greater than 200 µM in experiment [5]; 0.179 µM in experiment [6].

For the compound `COc1ccc(S(=O)(=O)NCC2(Cc3ccc(CCO)cc3)CCCC2)cc1` [Example 47], the IC50 was greater than 200 µM in experiment [1]; greater than 200 µM in experiment [2]; greater than 200 µM in experiment [3]; greater than 200 µM in experiment [4]; greater than 200 µM in experiment [5]; 5.51 µM in experiment [6].

On to `O=S(=O)(NCC1(Cc2ccc(CCO)cc2)CCCC1)c1ccc(C(F)(F)F)cc1` [Example 49], for which the IC50 was greater than 200 µM in experiment [1]; greater than 200 µM in experiment [2]; greater than 200 µM in experiment [3]; greater than 200 µM in experiment [4]; greater than 200 µM in experiment [5]; 3.14 µM in experiment [6].

As for `O=S(=O)(NCC1(Cc2ccc(CCO)cc2)CCCC1)c1cccc(C(F)(F)F)c1` [Example 50], the IC50 in experiment [1] is greater than 200 µM; in experiment [2], greater than 200 µM; in experiment [3], greater than 200 µM; in experiment [4] it was greater than 200 µM; in experiment [5] it was greater than 200 µM; in experiment [6] it was 3.16 µM.

`O=S(=O)(NCC1(Cc2ccc(CCO)cc2)CCCC1)c1ccc2ccccc2c1` [Example 51]: the IC50 in experiment [1] was greater than 200 µM; in experiment [2], greater than 200 µM; in experiment [3] it was greater than 200 µM; in experiment [4] it was greater than 200 µM; in experiment [5], greater than 200 µM; in experiment [6], 0.281 µM.

In the case of `O=[N+]([O-])c1ccc(S(=O)(=O)NCC2(Cc3ccc(CCO)cc3)CCCC2)cc1` [Example 52], the IC50 was greater than 200 µM in experiment [1]; greater than 200 µM in experiment [2]; greater than 200 µM in experiment [3]; greater than 200 µM in experiment [4]; greater than 200 µM in experiment [5]; 3.69 µM in experiment [6].

Turning to `O=S(=O)(NCC1(Cc2ccc(CCO)cc2)CCC1)c1ccc(Cl)cc1` [Example 56], the IC50 in experiment [1] was greater than 200 µM; in experiment [2], greater than 200 µM; in experiment [3], greater than 200 µM; in experiment [4] it was greater than 200 µM; in experiment [5], greater than 200 µM; in experiment [6], 0.989 µM.

As to `Cc1ccc(S(=O)(=O)NCC2(Cc3ccc(CCO)cc3)CCC2)cc1` [Example 57], the IC50 in experiment [1] is greater than 200 µM; in experiment [2] it was greater than 200 µM; in experiment [3] it was greater than 200 µM; in experiment [4], greater than 200 µM; in experiment [5], greater than 200 µM; in experiment [6], 3.05 µM.

`O=S(=O)(NCC1(Cc2ccc(CCO)cc2)CCCC1)c1c(F)c(F)c(F)c(F)c1F` [Example 58]: the IC50 is 46.7 µM in experiment [1]; greater than 200 µM in experiment [2]; greater than 200 µM in experiment [3]; greater than 200 µM in experiment [4]; greater than 200 µM in experiment [5]; 0.143 µM in experiment [6].

Consider `Cc1ccc(S(=O)(=O)NCC2(Cc3ccc(CCO)cc3)CCCC2)cc1` [Example 59], for which the IC50 was greater than 200 µM in experiment [1]; greater than 200 µM in experiment [2]; greater than 200 µM in experiment [3]; greater than 200 µM in experiment [4]; greater than 200 µM in experiment [5]; 4.06 µM in experiment [6].

In the case of `O=S(=O)(NCC1(Cc2ccc(CCO)cc2)CCCC1)c1cc(F)c(F)c(F)c1` [Example 61], the IC50 was greater than 200 µM in experiment [1]; greater than 200 µM in experiment [2]; greater than 200 µM in experiment [3]; greater than 200 µM in experiment [4]; greater than 200 µM in experiment [5]; 1.79 µM in experiment [6].

On to `O=S(=O)(NCC1(Cc2ccc(CCO)cc2)CCCC1)c1cc(Cl)cc(Cl)c1` [Example 62], for which the IC50 in experiment [1] was greater than 200 µM; in experiment [2], greater than 200 µM; in experiment [3] it was greater than 200 µM; in experiment [4] it was greater than 200 µM; in experiment [5], greater than 200 µM; in experiment [6], 6.22 µM.

As to `Cc1cccc(S(=O)(=O)NCC2(Cc3ccc(CCO)cc3)CCCC2)c1` [Example 63], the IC50 in experiment [1] is greater than 200 µM; in experiment [2] it was greater than 200 µM; in experiment [3], greater than 200 µM; in experiment [4], greater than 200 µM; in experiment [5], greater than 200 µM; in experiment [6] it was 6.56 µM.

Regarding `O=S(=O)(NCC1(Cc2ccc(CCO)cc2)CCCC1)c1ccc(Cl)c(C(F)(F)F)c1` [Example 65], the IC50 is greater than 25 µM in experiment [1]; greater than 200 µM in experiment [2]; greater than 200 µM in experiment [3]; greater than 200 µM in experiment [4]; greater than 200 µM in experiment [5]; 0.25 µM in experiment [6].

For `O=S(=O)(NCC1(Cc2ccc(CCO)cc2)CCC1)c1c(F)c(F)c(F)c(F)c1F` [Example 66], the IC50 in experiment [1] (read-out: Inhibition IC50 Caspase-9, tested 100 nM to 200 μM, 1% DMSO, 3 h 30 min at room temperature) was greater than 200 µM; in experiment [2] (read-out: Inhibition IC50 Caspase-6, tested 100 nM to 200 μM, 1% DMSO, 3 h 30 min at room temperature) it was greater than 200 µM; in experiment [3] (read-out: Inhibition IC50 Caspase-8, tested 100 nM to 200 μM, 1% DMSO, 3 h 30 min at room temperature), greater than 200 µM; in experiment [4] (read-out: Inhibition IC50 Caspase-2, tested 100 nM to 200 μM, 1% DMSO, 3 h 30 min at room temperature), greater than 200 µM; in experiment [5] (read-out: Inhibition IC50 Caspase-3, tested 100 nM to 200 μM, 1% DMSO, 3 h 30 min at room temperature), greater than 200 µM; in experiment [6] (read-out: Inhibition IC50 Caspase-10, tested 100 nM to 200 μM, 1% DMSO, 3 h 30 min at room temperature) it was 0.393 µM.
